These results are taken from article PMC12562781 (International Journal of Molecular Sciences, 2025).

Structures are written as SMILES. In brackets after ≈: the same amount, converted by molar mass. Like-named read-outs stand apart in the source and are kept apart here.

Data set [1] deals with human liver cancer cell lines (HepG2). The experiment in a line: MTT cytotoxicity assay, HepG2 cells. The note with it: HepG2, 24 h, read-out: IC50 Values, cytotoxicity, HepG2. The protocol: (§1) The cells were allowed to grow to 90% confluency in an incubator set at 37 °C containing 5% CO2, before they were trypsinized and cultured in 96-well tissue culture plates. Stock and final concentrations of the compounds were prepared in the culture media.
(§2) Just 5 h before the elapse of 24 h, 10 µL of 5 mg/mL MTT solution was added to each well, and the plates were further incubated. At the end of the incubation period, the media was removed from each well and replaced with 50 µL of DMSO. The plates were shaken on a rotating shaker for 10 min before taking readings at 560 nm using a microplate reader (Elisa Plate Reader, BioTek Instruments, Inc., Winooski, VT, USA). […] IC50 values were calculated from the graphs as compound concentrations that reduced the absorbance at 560 nm by 50% of the untreated control wells. To exclude background readings, three wells were seeded with untreated cells in which MTT was not added. Assays were performed in triplicate to ensure reproducibility. The percentage inhibitions of cell proliferation were calculated using the following formula:% Cytotoxicity = ((A − B)/A) × 100 where: A is the absorbance of the negative control (untreated cells). B is the absorbance of the treated cells.
(§3) Data were presented as the cumulative mean of each compound. Each compound was run in triplicate. GraphPad Prism (version 5) was used for statistical analysis of all data. For all the data, one-way analysis of variance (ANOVA) followed by Bonferroni’s multiple comparison tests was used to compare the means of one group with every other group. Statistical significance was set at 5%; thus, a p-value ≤ 0.05 was considered significant. Concentrations that inhibit cell proliferation by 50% (IC50) were calculated using Graphpad Prism 5 software.

The nature of data set [2]: MTT cytotoxicity assay, KMST-6 cells. The class given is cell-based, human. To be noted: human. How it is done:
(§4) Assays were performed in triplicate to ensure reproducibility. […] B is the absorbance of the treated cells.
(§5) Each compound was run in triplicate.
(In general: Tetrazolium dyes change colour on reduction, which living cells bring about.)

Data set [3] deals with breast adenocarcinoma cancer cell lines (MDA). The experiment in a line: MTT cytotoxicity assay, MDA cells. The note with it: Homo sapiens, 24 h, read-out: IC50 Values, cytotoxicity, MDA. How it is done:
as §1, §2, §3

The next data set relates to Funtumia africana. Also noted: method as in earlier work. To be noted: cited from earlier work.
For data set [4], the system named is Vero cells and human liver cancer cells. Also noted: method as in earlier work. The note with it: cited from earlier work.
In a further data set the test system is HL60 cells. Also noted: method as in doi:10.1007/s00044-014-1093-y. The note with it: cited from earlier work.
Data set [5] has as its system human breast cancer cells (MDA-MB-231). Also noted: method as in PMID 28231262. The note with it: cited from earlier work.
A further data set relates to Plasmodium. Also noted: method as in PMID 24108397. The note with it: cited from earlier work.
Data set [6] deals with human prostate cancer cell lines (PC3). The experiment in a line: MTT cytotoxicity assay, PC3 cells. The protocol:
as §1, §2
Data were presented as the cumulative mean of each compound. Each compound was run in triplicate. GraphPad Prism (version 5) was used for statistical analysis of all data. […]

The next data set concerns MDA-MB-231. The note with it: cited from earlier work.
A further data set relates to MCF-7 cells. Also noted: method as in PMID 24658565. To be noted: read-out: cytotoxic IC50, MCF-7; cited from earlier work.
For the next data set, the system named is HT-29 cells. Also noted: method as in PMID 24658565. The note with it: read-out: cytotoxic IC50, HT-29; cited from earlier work.
A further data set deals with HeLa cells. Also noted: method as in PMID 24658565. The note with it: read-out: cytotoxic IC50, HeLa; cited from earlier work.
The subject of data set [7] is non-cancerous human fibroblast cell lines (KMST-6). The experiment in a line: MTT cytotoxicity assay, KMST-6 cells. Type of data set: cell-based. To be noted: MTT, 24 h, 0.156 µM to 10 µM, triplicate; non-cancerous cells. The protocol:
as §4, §5

The test system of another data set is HEK293. Also noted: method as in PMID 24108397. The note with it: cited from earlier work.
The next data set concerns Plasmodium berghei. Also noted: method as in PMID 24108397. To be noted: mice; cited from earlier work.
In the next data set the test system is Hep-G2. The note with it: cited from earlier work.
Another data set has as its system HepG2. Also noted: method as in PMID 24108397. To be noted: cited from earlier work.

On to `COC(=O)[C@]12CC[C@@H](C)[C@H](C)C1C1=CCC3[C@@]4(C)CC[C@H](OC(C)=O)C(C)(C)C4CC[C@@]3(C)[C@]1(C)CC2` (some centres unmarked) [Compound 5, 3-acetylursolic-methylate], for which the IC50 in data set [1] is 0.85 µM; in [3] it was 1.9 µM. In data set [2], the IC50 at 24 h is over 5 µM.

As for `COC(=O)[C@]12CC[C@@H](C)[C@H](C)[C@H]1C1=CC[C@@H]3[C@@]4(C)CC[C@H](O)C(C)(C)[C@@H]4CC[C@@]3(C)[C@]1(C)CC2` [Compound 4, ursolic-28-methylate], the MIC in the data set on Funtumia africana was 62.5 µg/mL (≈ 133 µM). Further, the IC50 in data set [1] was determined as 1.6 µM; in [3] it was 2.48 µM. The “cytotoxicity IC50” value in data set [4] is 10.4 µg/mL. Besides, in the data set with HL60 cells, the “ED50, HL60” value is 22.7 µg/mL (≈ 48.2 µM). Moreover, the IC50 at 24 h in data set [2] was over 5 µM.

As for `CC1(C)CC[C@]2(C(=O)O)CC[C@]3(C)C(=CC[C@@H]4[C@@]5(C)CC[C@H](O)C(C)(C)[C@@H]5CC[C@]43C)[C@@H]2C1` [Compound 2, oleanolic acid], the concentration for half-maximal inhibition (IC50) in data set [1] came to 1.2 µM; in [3], 4.48 µM. Besides, the “effect on cell migration” value in [5] is listed as “clearly enhanced cell migration”. In addition, the IC50 at 24 h in [2] (KMST-6 non-cancerous fibroblast cells, MTT, 24 h, 0.156 µM to 10 µM, triplicate, non-cancerous cells, read-out: IC50 Values, cytotoxicity, KMST-6) is 3.88 µM.

Consider `COC1CCC2(C)C3CCC4(C)C(=CCC5(C)CCC(C)(C)CC54)C3(C)CCC2C1(C)C` (centres unmarked) [sawamilletin], for which, in the data set on Plasmodium (unit not given), the “anti-plasmodial IC50” value is reported as over 100.

On to `C[C@H]1[C@H](C)CC[C@]2(C(=O)O)CC[C@]3(C)C(=CC[C@@H]4[C@@]5(C)CC[C@H](O)C(C)(C)[C@@H]5CC[C@]43C)[C@H]12` [Compound 1, ursolic acid], for which the IC50 is 0.262 µM in data set [6] (read-out: IC50 Values, cytotoxicity, PC3, MTT, 24 h, 0.156 µM to 10 µM, triplicate); 20 µM in the data set on MCF-7 cells; 0.261 µM in [1]; 10 µM in the data set on HT-29 cells; 10 µM in the data set on HeLa cells; over 5 µM in data set [3]. The “concentration that inhibits cell proliferation” value in the data set on MDA-MB-231 was at least 160 µg/mL. Besides, in the data set with Plasmodium, the “anti-plasmodial IC50” value is 6.8 µg/mL. Besides, the “IC50 Values, cytotoxicity, KMST-6” value in data set [7] is recorded as “ns”.

Consider `CC(=O)O[C@H]1CC[C@]2(C)[C@H]3CC=C4[C@@H]5[C@@H](C)[C@H](C)CC[C@]5(C(=O)O)CC[C@@]4(C)[C@]3(C)CC[C@H]2C1(C)C` [Compound 3, 3-O-acetyl ursolic acid], for which the “cytotoxicity IC50, HEK293” value in the data set on HEK293 was 366.00 µg/mL. Moreover, the decrease of parasitemia in the data set with Plasmodium berghei was 94.01%. Further, the “IC50 Values, cytotoxicity, PC3” value in data set [6] is “ns”. Further, the “cytotoxicity IC50, Hep-G2” value with Hep-G2 is 4.73 µg/mL. Also, the IC50 in [1] was determined as 0.85 µM; in data set [3], 3.93 µM. In addition, the “cytotoxicity IC50, HepG2” value in the data set with HepG2 was 566.09 µg/mL. For the same molecule, the IC50 at 24 h in [2] was determined as 4.88 µM.

For the molecule `CC1(C)CC[C@]2(C)CC=C3[C@]4(C)CC[C@H]5C(C)(C)[C@@H](O)CC[C@]5(C)[C@H]4CC[C@@]3(C)[C@@H]2C1` [taraxerol], the “anti-plasmodial IC50” value with Plasmodium (unit not given) is over 100.

By IC50 is commonly meant the concentration that inhibits the measured activity by half. As a reminder, the MIC is the least concentration at which growth counts as inhibited.
